Laboratory results taken from EP4643861A1, “A HALOGENATED-HETEROARYL KINASE INHBITOR FOR TREATING SOFT TISSUE SARCOMA AND VASCULAR TUMORS” (iOmx Therapeutics AG, priority 2024, dated 2025).

Assays:
[1] = system: Human Patient-Derived Xenograft (PDX) Angiosarcoma; experiment: E9 monotherapy efficacy in Human Patient-Derived Xenograft (PDX) Angiosarcoma model; type: in vivo, immuno-deficient NOD scid gamma (NOG) mice; details: BID × 23, termination at day 23
Description: This Angiosarcoma PDX model was used for preclinical evaluation of E9 in Angiosarcoma due to the retention of tumor heterogeneity and biological characteristics. Additionally, due to the rare indication, no murine syngeneic or human xenograft models are available.
Briefly, immuno-deficient NOD scid gamma (NOG) mice, were housed in a controlled environment conducive to tumor growth. Human PDX tumor samples, obtained from a patient with Angiosarcoma (Epitheloid AS […]), were implanted subcutaneously into the mice. Tumor growth was monitored using non-invasive caliper method and was calculated by the following formula: volume = (width)2 × (length)/2. Animals were randomized into treatment groups at a tumor volume (TV) of ~160mm3 (Table 1). Treatment started after randomization twice daily until termination at day 23 when Vehicle animals reached termination criteria due to TV. Table 1: Example treatment groups.

[2] = system: secondary radiation-induced cutaneous angiosarcoma; experiment: Treatment of a secondary angiosarcoma in a patient (dose escalation study); type: in vivo, human
Experimental: Clinical responder patient suffered from a secondary radiation-induced cutaneous angiosarcoma. The patient, who previously received radiotherapy in context of a treatment of breast cancer, developed secondary angiosarcoma. The angiosarcoma was treated with chemotherapy including paclitaxel, doxorubicin and cyclophosphamide the patient developed treatment resistance to the chemotherapy. In the following the patient received E9 in context of a dose excalation study in which E9 was administered orally every 12h (i.e. twice daily) for 28 days per treatment cycle. E9 daily doses were escalated from 10mg to 30mg and finally 60mg E9 during the then following continuous treatment.

Compound: Cc1nc(Nc2ncc(C(=O)Nc3c(CF)csc3Cl)s2)cc(N2CCN(C)CC2)n1 [E9, N-(2-chloro-4-(fluoromethyl)thiophen-3-yl)-2-((2-methyl-6-(4-methylpiperazin-1-yl)pyrimidin-4-yl)amino)thiazole-5-carboxamide]
- tumor growth inhibition (TGI) ([1]; 25mg/kg E9, p.o.): 55%
- tumor size at termination compared to treatment start ([1]; 50 mg/kg E9, p.o.): tumor regression
- duration of maintained near-complete response ([2]; further treatment with 60mg daily E9): over 10 months
- tolerability ([2]; orally every 12h, 28 days per cycle, daily doses escalated from 10mg to 30mg and finally 60mg): well tolerated
- clinical response (reduction of cutaneous lesions) ([2]; patient resistant to paclitaxel, doxorubicin and cyclophosphamide, E9 orally twice daily): near-complete response
